Measured values as given in US12678503B2, “Water-activated mucoadhesive compositions and methods of delivering biologically active substances” (The Brigham and Women's Hospital, Inc., priority 2019, dated 2026).

Experiments:
[1] = Aluminum release in simulated GI fluids; assay type: physicochemical; conditions: simulated gastric fluid (SGF, pH 1.0)
[2] = Film thickness of hydrated paste on mucus-coated cellulose nitrate membrane; assay type: physicochemical
Description: Five hundred milligrams of AF-LuCI (excess) was added onto mucus-coated cellulose nitrate membrane (disk shape with 2 cm diameter) and DDW (pH 5.5), SGF (pH 1.0), or SIF (pH 6.5) was added immediately. After AF-LuCI becomes a paste and flow to form a layer (3-5 minutes), supernatant was removed and the paste-coated membrane was quickly frozen in −80° C. freezer to measure the thickness. The thickness of the mucus-coated cellulose nitrate membrane without AF-LuCI was separately measured as a baseline.

[3] = Integrative barrier property test, glucose permeation in Franz-cell system
Description: To examine the barrier properties of pastes formed from the new hydratable compositions in vitro, a mucin-coated membrane was prepared to mimic the mucus surface of the intestine. Specifically, a cellulose nitrate membrane (pore size: 0.2 μm, Whatman, Germany) was incubated in a 3% w/v porcine stomach mucin (Sigma Aldrich, USA) solution in PBS (pH 7.4) and gently shaken for 2 hours at room temperature. The membrane was washed with distilled deionized water (DDW, pH 5.5) to remove the excess mucin solution. The mucin-coated membranes were used within 1 hour following preparation.
To measure the thickness of the mucin layer, the mucin-coated membrane was lyophilized and imaged using scanning electron microscope (SEM) and the thickness of randomly selected positions was examined (average mucin layer thickness: ~100 μm). To test the nutrient barrier properties, 10 mg of sucralfate or AF-LuCI was added evenly to a mucin-coated membrane and vertically tilted for 1 minute. […]
The permeation tests were performed in triplicate for each material. The glucose concentration was measured using high performance liquid chromatography (HPLC, Agilent, USA) with an analytical C18 column (Zorbax Eclipse XDB-C18, Agilent). […]

[4] = Degree of polymerization of PAC by titration; assay type: physicochemical; conditions: native sucralfate
Description: Experiments were performed to determine the degree of polymerization in AF-LuCI by using the titration-based methods as described in Nail, S. L., White, J. L. & Hem, S. L. Structure of Aluminum Hydroxide Gel I. Initial Precipitate. Journal of Pharmaceutical Sciences 65, 1188-1191 (1976); and Hem, J. D. & Roberson, C. E. Form and stability of aluminum hydroxide complexes in dilute solution. Geol Surv Water-Supply Pap (US); (United States) (1967). The degree of polymerization of PACs in AF-LuCI and sucralfate molecule was determined using titration method based on the reversible protonation of hydroxo linkages in the PAC backbone. Approximately 10 mg of AF-LuCI were treated with 0.1N, 0.2N, 0.3N, 0.4N and 0.5N HCl solutions in different tubes. The samples were vortexed for 5 seconds followed by 1-hour incubation. The supernatant of each sample was then collected and the pH was measured using a pH meter. The same procedures were performed with sucralfate. The pH of the HCl solutions was measured as the control group and the difference between the control and the treated groups was calculated. The difference in pH corresponds to the proton consumption and the amount of hydroxo linkages that were then used to calculate the number of aluminum per molecule.

[5] = Dissolution in NaCl solutions; assay type: physicochemical; conditions: saturated NaCl solutions (~0.35 g/ml in water)
From the text: […] This is a characteristic behavior of liquid complex coacervate system (See Wang, Q. & Schlenoff, J. B. The Polyelectrolyte Complex/Coacervate Continuum. Macromolecules 47, 3108-3116 (2014); de Kruif, C. G., Weinbreck, F. & de Vries, R. Complex coacervation of proteins and anionic polysaccharides. Current Opinion in Colloid & Interface Science 9, 340-349 (2004); Veis, A. & Aranyi, C. PHASE SEPARATION IN POLYELECTROLYTE SYSTEMS. I. COMPLEX COACERVATES OF GELATIN. J. Phys. Chem. 64, 1203-1210 (1960)).

Sprague-Dawley (SD) rats = assay: microCT imaging of coating in the GI tract; assay type: in vivo, rat; conditions: gavaged to SD rats
Description: Sprague-Dawley (SD) rats were gavaged into the stomach with hydrated AF-LuCI pastes and imaged using micro-computed tomography (microCT). AF-LuCI pastes could be visualized on gastro-intestinal tissues without additional contrast agents owing to the presence of aluminum. For these experiments, rats were fasted overnight and gavaged directly into the stomach with 450 mg/kg rat of AF-LuCI paste hydrated in 0.9 w/v % normal saline solution. After 1 hr and 5 hr, the rats were anesthetized using isoflurane and imaged using microCT. […] FIG. 18A is a coronal plane view of SD rats gavaged with AF-LuCI 1 hr before the imaging. AF-LuCI formed a layer in stomach, duodenum and proximal intestine. FIGS. 18B and 18C are 3-dimentional views of SD rats gavaged with AF-LuCI (FIG. 18B) 1 hr and (FIG. 18C) 5 hr before the microCT imaging. AF-LuCI is attached on stomach, duodenum and proximal intestine at least for 5 hrs after gavage while sucralfate only formed sparsely scattered aggregates on the healthy mucosa

SD rats = assay: OGTT with different viscosity, dose and dosing schedule (Example 12); assay type: in vivo, rat; conditions: normal SD rats
Description: Experiments were then performed to assess if the AF-LuCI coating could lower glucose response. To evaluate the in vivo effect of the barrier coating from AF-LuCI on postprandial glucose response, SD rats were pre-gavaged with the AF-LuCI pastes and standard OGTT was performed. AF-LuCI at different dosage but also different viscosity. It was hypothesized that low viscosity product may lead to barrier formation in larger area and earlier duodenal coating (onset of action). For these studies, rats were fasted overnight and gavaged with AF-LuCI pastes (dose: 450-2,700 mg/kg rat; viscosity: high and low), or saline as a control. One or three hours later, glucose solution (2 g/kg rat) was gavaged and changes in serum glucose levels measured every 30 minutes over the subsequent 120 min (n=4 per arm). Tail vein blood was used to measure glucose levels using glucometer. […] The time gap between AF-LuCI administration and glucose gavage also affects the reduction of blood glucose responses differently depending on the AF-LuCI formulations (FIG. 19C). 3 hr after treatment with 450 mg/kg rat lower viscosity AF-LuCI (i.e. 5 Pa·s), the reduction in glucose response decreased to 7%. In FIG. 19, AF-LuCI fabricated using 0.4N, 0.5N, and 0.6N HCl solution and rehydrated in 0.9 w/v % normal saline is denoted as “Viscosity High”, “Viscosity Mid”, and “Viscosity Low”, respectively.

[6] = cited from earlier work

release of aluminum [1]: 15 w/w % of total aluminum content | layer formation ([2]; distilled water or SIF): did not form any layer | thickness of layer ([2]; only in SGF (pH 1.0)): ~ 250 μm | number of aluminum ions per molecule [4]: 56.1±3.0 aluminum per molecule | amount dissolved [5]: Less than 5 w/w % | layer formation in the GI tract (microCT) (Sprague-Dawley (SD) rats): did not form a layer
Substance: sucralfate
glucose penetration blocked ([3]; SGF, 10 mg on mucin-coated membrane, 120 g/L glucose, 5 minutes): ~ 60% | glucose blocked ([3]; applied on mucus-coated membrane in pH 1.0, then pH 4.0): 16.5% | area under curve (AUC) in OGTT vs saline treated group (SD rats): no significant difference | aluminum content of sucralfate (USP regulation) [6]: 15.5-18.5 w/w % of the total weight
